This note sets out measurements from ChEMBL document CHEMBL1201862, “PubChem BioAssay data set” (2004).

Test systems include UACC-62; HOP-62; HCC 2998; NCI-H522; SNB-78; SN12C; DMS-114; ACHN; KM12; COLO 205; OVCAR-5; SF-539; DLD-1; K562; HOP-92; DMS-273; OVCAR-3; LOX IMVI.
Common to all, as to assay: NCI anticancer screen, dose series, 48 h

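Compound exposure: 48 hours, 5 concentrations, 96-well plates. GI50 = concentration required for 50% inhibition of growth.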 The source made the active and inactive calls. Cut-off read from the data, not from the text of the source: active = GI50 up to about 1.1 µM and inactive = higher. A value given as a limit tells only on which side of the number the result lay.

For the compound `c1ccc2c(c1)Cc1c(Cc3csc4ccccc34)ccc3cccc-2c13`, the GI50 was > 100 µM (inactive) with UACC-62; > 100 µM (inactive) in the experiment on HOP-62; > 100 µM (inactive) in the experiment on HCC 2998; 41.3 µM (inactive) in the experiment on NCI-H522; 94.4 µM (inactive) in the experiment on SNB-78; > 100 µM (inactive) with SN12C. Moreover, the GI50 with DMS-114, in the experiment with ACHN, in the experiment on KM12, with COLO 205, with OVCAR-5 and with SF-539 was > 100 µM (inactive) in each case. Also, the GI50 is > 100 µM (inactive) in the experiment with DLD-1; 45.9 µM (inactive) in the experiment on K562; > 100 µM (inactive) with HOP-92; > 100 µM (inactive) in the experiment with DMS-273; > 100 µM (inactive) in the experiment with OVCAR-3.
In the case of `O=CN1CCN(C=S)CC1`, the GI50 in the experiment with UACC-62, with HOP-62, in the experiment with HCC 2998, in the experiment on NCI-H522, in the experiment on SNB-78 and with SN12C was > 100 µM (inactive) throughout. Further, the GI50 with DMS-114, with ACHN, in the experiment on KM12, in the experiment on COLO 205, in the experiment on OVCAR-5 and in the experiment on SF-539 was > 100 µM (inactive) each time. The GI50 in the experiment on DLD-1, with K562, in the experiment with HOP-92, with LOX IMVI, with DMS-273 and in the experiment on OVCAR-3 was > 100 µM (inactive) in each case.
As to `Cc1ccccc1C1CC(c2ccccc2)=NO1` (stereo unspecified), the GI50 in the experiment with UACC-62, in the experiment on HOP-62, in the experiment on HCC 2998, with NCI-H522, in the experiment on SNB-78 and with SN12C was > 100 µM (inactive) in each case. Further, the GI50 in the experiment with DMS-114, in the experiment on ACHN, with KM12, in the experiment on COLO 205, in the experiment on OVCAR-5 and with SF-539 was > 100 µM (inactive) each time. The GI50 with DLD-1, in the experiment with K562, with HOP-92, in the experiment on DMS-273 and in the experiment on OVCAR-3 was > 100 µM (inactive) in each case.
Take `Cc1cccc(C(C)(C)C)c1NC(=O)CCc1n[nH]c(=S)o1`: the GI50 in the experiment on UACC-62, with HOP-62, with HCC 2998, in the experiment with NCI-H522, in the experiment on SNB-78 and in the experiment with SN12C was > 100 µM (inactive) each time. The GI50 with DMS-114 is 43.3 µM (inactive); in the experiment with ACHN it was > 100 µM (inactive); with KM12, > 100 µM (inactive); with COLO 205, 16.6 µM (inactive); in the experiment on OVCAR-5, > 100 µM (inactive); in the experiment on SF-539 it was > 100 µM (inactive). The GI50 in the experiment with DLD-1 is 98.4 µM (inactive); with K562, 43.2 µM (inactive); in the experiment with HOP-92 it was > 100 µM (inactive); with DMS-273 it was 40.9 µM (inactive); in the experiment with OVCAR-3 it was > 100 µM (inactive).
For the compound `O=C(Cc1nc2ccccc2s1)C(=O)Nc1ccc(Cl)cc1`, the GI50 in the experiment on UACC-62, with HOP-62, in the experiment on HCC 2998, in the experiment with NCI-H522, with SNB-78 and in the experiment on SN12C was > 100 µM (inactive) throughout. Further, the GI50 in the experiment on DMS-114, in the experiment with ACHN, in the experiment with KM12, with COLO 205, in the experiment with OVCAR-5 and with SF-539 was > 100 µM (inactive) in each case. Also, the GI50 in the experiment on DLD-1, in the experiment with K562, in the experiment on HOP-92, in the experiment with LOX IMVI, in the experiment with DMS-273 and in the experiment with OVCAR-3 was > 100 µM (inactive) each time.
On to `COc1ccc(/C=C/c2cc(OC)c(OC(C)=O)c(OC)c2)cc1`, for which the GI50 in the experiment on UACC-62 was 20.1 µM (inactive); in the experiment with HOP-62, 25.9 µM (inactive); with HCC 2998, 20.7 µM (inactive); with NCI-H522, 19.5 µM (inactive); in the experiment on SNB-78 it was 22 µM (inactive); with SN12C it was 24.3 µM (inactive). The GI50 was 26.5 µM (inactive) in the experiment with DMS-114; 33 µM (inactive) with ACHN; 68.1 µM (inactive) in the experiment with COLO 205; 1.94 µM (inactive) with OVCAR-5; > 10 µM (inactive) in the experiment on SF-539; 29.9 µM (inactive) with DLD-1. The GI50 in the experiment on HOP-92 is 28.1 µM (inactive); with DMS-273, 31.2 µM (inactive); with OVCAR-3, 41.2 µM (inactive).
In the case of `Cc1cccc(NC(=O)CSc2nnc(Cc3ccccc3)o2)c1`, the GI50 in the experiment with UACC-62, in the experiment on HOP-62, with HCC 2998, in the experiment with NCI-H522, with SNB-78 and in the experiment with SN12C was > 100 µM (inactive) in each case. Moreover, the GI50 in the experiment with DMS-114, in the experiment on ACHN, in the experiment with KM12, in the experiment with COLO 205, with OVCAR-5 and with SF-539 was > 100 µM (inactive) throughout. The GI50 in the experiment on DLD-1, in the experiment on K562, in the experiment on LOX IMVI, with DMS-273 and in the experiment with OVCAR-3 was > 100 µM (inactive) in each case.
On to `COC(=O)[C@@H]1C(=O)O[C@@H](c2cc(OC)c(OC)cc2OC)[C@@H]1C(=O)OC.COC(=O)[C@H]1C(=O)O[C@@H](c2cc(OC)c(OC)cc2OC)[C@@H]1C(=O)OC`, for which the GI50 with UACC-62, in the experiment with HOP-62, with HCC 2998, with NCI-H522, in the experiment on SNB-78 and with SN12C was > 100 µM (inactive) each time. Moreover, the GI50 in the experiment on DMS-114, in the experiment with ACHN, in the experiment with KM12, with COLO 205, in the experiment with OVCAR-5 and in the experiment with SF-539 was > 100 µM (inactive) throughout. The GI50 in the experiment with DLD-1, in the experiment on K562, in the experiment on HOP-92, with LOX IMVI, in the experiment with DMS-273 and in the experiment on OVCAR-3 was > 100 µM (inactive) throughout.
`CS(=O)(=O)Oc1cccc(/C=N/N=C(\N)NO)c1`: the GI50 was 4.84 µM (inactive) in the experiment with UACC-62; 27.5 µM (inactive) with HOP-62; 20.6 µM (inactive) with HCC 2998; 26.2 µM (inactive) with NCI-H522; > 100 µM (inactive) in the experiment on SNB-78; 29.2 µM (inactive) with SN12C. Also, the GI50 with DMS-114 was 9.55 µM (inactive); in the experiment on ACHN, 22.2 µM (inactive); in the experiment with KM12 it was 25.1 µM (inactive); with COLO 205, 26.7 µM (inactive); with OVCAR-5, 36 µM (inactive); in the experiment on SF-539, 28.6 µM (inactive). For the same compound, the GI50 is 24.9 µM (inactive) with DLD-1; 19.1 µM (inactive) in the experiment with K562; 22.4 µM (inactive) in the experiment on HOP-92; 19.9 µM (inactive) in the experiment on DMS-273; 35.2 µM (inactive) in the experiment with OVCAR-3.
As to `CC1C=C(OC(=O)c2ccccc2)C(=O)C(n2cc(F)c(=O)[nH]c2=O)O1` (stereo unspecified), the GI50 is 79.4 µM (inactive) in the experiment on UACC-62; 27.8 µM (inactive) in the experiment on HOP-62; 5.56 µM (inactive) in the experiment with HCC 2998; > 100 µM (inactive) in the experiment on NCI-H522; > 100 µM (inactive) with SNB-78; > 100 µM (inactive) with SN12C. For the same compound, the GI50 with DMS-114 is > 100 µM (inactive); in the experiment with ACHN it was 59.7 µM (inactive); in the experiment on KM12, 46 µM (inactive); in the experiment on COLO 205, 50.9 µM (inactive); with OVCAR-5, > 100 µM (inactive); with SF-539, 13.9 µM (inactive). Also, the GI50 in the experiment with DLD-1 was 22.8 µM (inactive); in the experiment on K562, 76 µM (inactive); in the experiment on HOP-92, > 100 µM (inactive); in the experiment with DMS-273, 42.8 µM (inactive); in the experiment on OVCAR-3 it was > 100 µM (inactive).
Regarding `CC(C)CC(CNC(Cc1ccc(Cl)cc1)C(N)=O)NC(=O)C(Cc1c[nH]cn1)NC(=O)CNC(=O)C(NC(=O)C(C)NC(=O)C(Cc1c[nH]c2ccccc12)NC(=O)C(CCC(=O)O)NC(=O)C(N)Cc1ccccc1)C(C)C` (stereo unspecified), the GI50 is > 133 µM (inactive) in the experiment with UACC-62; > 133 µM (inactive) in the experiment with HOP-62; > 133 µM (inactive) in the experiment on HCC 2998; > 133 µM (inactive) with SNB-78; > 133 µM (inactive) in the experiment on SN12C; 119 µM (inactive) in the experiment on DMS-114. Also, the GI50 with ACHN, with KM12, with COLO 205, in the experiment on SF-539, in the experiment with DLD-1 and in the experiment on K562 was > 133 µM (inactive) in each case. The GI50 in the experiment on HOP-92 was < 0.0133 µM (active); in the experiment with DMS-273, > 133 µM (inactive); with OVCAR-3 it was > 133 µM (inactive).
